According to US5679671A, “Amino acid derivative” (Eisai Co., Ltd., priority 1993, dated 1997):

Assays:
[1] = molecular target: T1, NEP (Rattus norvegicus, UniProt P07861); assay: NEP inhibition activity (Experiment F-1); format: biochemical; design: membrane fraction prepared from rat renal cortex; from tissue; host or cells: rat renal cortex, membrane fraction (method of Booth and Kenny); conditions: rat renal cortex membrane fraction
T1 sequence (P07861 1-750): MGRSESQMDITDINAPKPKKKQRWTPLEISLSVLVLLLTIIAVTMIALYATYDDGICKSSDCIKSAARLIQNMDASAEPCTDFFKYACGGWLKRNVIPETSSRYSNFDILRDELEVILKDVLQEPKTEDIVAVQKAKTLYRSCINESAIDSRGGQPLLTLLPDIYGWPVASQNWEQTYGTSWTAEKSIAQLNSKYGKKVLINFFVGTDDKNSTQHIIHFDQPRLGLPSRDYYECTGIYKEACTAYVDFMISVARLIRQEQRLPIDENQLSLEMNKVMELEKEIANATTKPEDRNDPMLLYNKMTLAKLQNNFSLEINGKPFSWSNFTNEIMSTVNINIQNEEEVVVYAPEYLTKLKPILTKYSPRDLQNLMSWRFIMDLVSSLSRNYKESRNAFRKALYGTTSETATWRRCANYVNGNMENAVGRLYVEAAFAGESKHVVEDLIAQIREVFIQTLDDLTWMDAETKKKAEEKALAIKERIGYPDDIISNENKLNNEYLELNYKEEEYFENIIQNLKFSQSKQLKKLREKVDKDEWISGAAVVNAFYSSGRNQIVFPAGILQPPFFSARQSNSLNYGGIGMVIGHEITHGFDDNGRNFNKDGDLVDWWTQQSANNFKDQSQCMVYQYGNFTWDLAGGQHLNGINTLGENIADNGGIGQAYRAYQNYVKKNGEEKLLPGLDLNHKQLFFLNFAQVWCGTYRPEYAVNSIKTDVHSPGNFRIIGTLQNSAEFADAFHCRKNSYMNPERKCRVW
Description: As a source of the enzyme NEP, a membrane fraction prepared from rat renal cortex in accordance with the method of Booth and Kenny (A Rapid Method for the Purification of Microvilli from Rabbit Kidney., Andrew G. Booth and A. John Kenny, Biochem. j., 1974, 142, 575-581.) was employed. The NEP activity was determined in accordance with the method of Orlowsky and Wilk (Purification and Specificity of a Membrane-Bound Metalloendpeptidase from Bovine Pituitaries., Marian Orlowsky and Shrwin Wilk, Biochemistry, 1981, 20, 4942-4950.). Now the procedure will be briefly described.
(§1) As a substrate, benzoyl-glycyl-arginyl-arginyl-2-naphthylamide (benzoyl-Gly-Arg-Arg-2-naphthylamide (Nova Biochem, Switzerland)) was used. In the presence of an NEP enzyme preparation and excessive leucine aminopeptidase (sigma chemical Co., U.S.A.), the liberated naphthylamine was made to undergo color development with first garnet (Sigma chemical Co., U.S.A.), followed by the measurement of the absorbance at a wavelength of 540 nm.
With respect to the NEP inhibition activity and the ACE inhibition activity, the inhibitor was added to the assay systems of both enzyme activities as described above in such a manner as to give the final concentrations of 1, 3, 10, 30, 100, 300 and 1000 inhibition curves were prepared, and then the concentration at which 50% inhibition was achieved was taken as IC50.

[2] = molecular target: T1, NEP; assay: NEP inhibition activity (Experiment C-1); format: biochemical; conditions: Table C-1
Description: The NEP activity was determined by the following manner in accordance with the method of Orlowsky and Wilk (Purification and Specificity of a Membrane-Bound Metalloendpeptidase from Bovine Pituitaries., Marian Orlowsky and Shrwin Wilk, Biochemistry, 1981, 20, 4942-4950.).
as §1
With respect to the NEP inhibition activity, the test compound was added to the experimental system as described above in such a manner as to give the final concentrations of 1, 3, 10, 30, 100, 300 and 1000 nM, an inhibition curve was prepared, and then the concentration at which 50% inhibition was achieved was taken as IC50. As a comparative compound, [4S-[4α,7α(R*),12bβ]]-7-[(1-oxo-2-(S)-thio-3-phenyl-propyl)amino]-1,2,3,4,6,7,8,12b-octahydro-6-oxopyrido-[2,1-a][2]benzazepine-4-carboxylic acid was used.

[3] = molecular target: T1, NEP; assay: NEP inhibition activity (Experiment E-1); format: biochemical; design: membrane fraction prepared from rat renal cortex; from tissue; host or cells: rat renal cortex, membrane fraction (method of Booth and Kenny); conditions: rat renal cortex membrane fraction
Description: As a source of the enzyme NEP, a membrane fraction prepared from rat renal cortex in accordance with the method of Booth and Kenny (A Rapid Method for the Purification of Microvilli from Rabbit Kidney., Andrew G. Booth and A. John Kenny, Biochem. j., 1974, 142,575-581.) was employed. The NEP activity was determined in accordance with the method of Orlowsky and Wilk (Purification and Specificity of a Membrane-Bound Metalloendpeptidase from Bovine Pituitaries., Marian Orlowsky and Shrwin Wilk, Biochemistry, 1981, 20, 4942-4950.). Now the procedure will be briefly described.
As a substrate, benzoyl-glycyl-arginyl-arginyl-2-naphthylamide (benzoyl-Gly-Arg-Arg-2 naphthylamide (Nova Biochem, Switzerland)) was used. In the presence of an NEP enzyme preparation and excessive leucine aminopeptidase (sigma chemical Co., U.S.A.), the liberated naphthylamine was made to undergo color development with first garnet (Sigma chemical Co., U.S.A.), followed by the measurement of the absorbance at a wavelength of 540 nm.
To determine the NEP inhibition activity and the ACE inhibition activity, the inhibitor was added to the assay systems of both enzyme activities as described above in such a manner as to give the final concentrations of 1, 3, 10, 30, 100, […] and 1000 nM and inhibition curves were prepared. Then the concentration at which 50% inhibition was achieved was taken as IC50.

[4] = test system: ANP-treated SHR; assay: Diuretic effect on ANP-treated SHR, i.v. (Experiment C-4); format: in vivo, Spontaneously hypertensive male rats
Description: 50 ng/kg/min of rat Atrial natriuretic peptide (r-ANP) was intravenously injected into Spontaneously hypertensive male rats (aged 14 to 16 weeks). When the hematogenic dynamics and the blood r-ANP level became stable 1 hour after the injection, the diuretic effect of each test compound was examined. The diuretic effect was determined by intravenously injecting the test compound and measuring an increase (% rate of change) in urinary accumulation within 20 minutes. As a comparative compound, [4S-[4α,7α(R*),12bβ]]-7-[(1-oxo-2(S)-thio-3-phenylpropyl)amino[-1,2,3,4,6,7,8,12b-octahydro-6-oxopyrido[2,1-a][2]benzazepine-4-carboxylic acid was used.

## O=C(N[C@H]1Cc2ccccc2[C@H]2CCC[C@@H](C(=O)O)N2C1=O)[C@@H](S)Cc1ccccc1 [Comp. cpd. E-1, [4S-[4α,7α(R*),12bβ]]-7-[(1-oxo-2-(S)-thio-3-phenyl-propyl)amino]-1,2,3,4,6,7,8,12b-octahydro-6-oxopyrido-[2,1-a][2]benzazepine-4-carboxylic acid, reference compound]
[1]
  IC50: 13.5 nM
[2]
  IC50: 27 nM
[3]
  IC50: 27 nM
[4]; 0.03 mg/kg i.v.
  increase (% rate of change) in urinary accumulation within 20 minutes: 220%
[4]; 0.1 mg/kg i.v.
  increase (% rate of change) in urinary accumulation within 20 minutes: 370%
[4]; 0.3 mg/kg i.v.
  increase (% rate of change) in urinary accumulation within 20 minutes: 360%

## CC[C@H](C)[C@H](S)C(=O)NC1CCc2ccccc2N(CC(=O)O)C1=O (stereo partly drawn) [Example A-9, 1-Carboxymethyl-3-[(2S,3S)-2-mercapto-3-methylvarelylamino]-1H-[1]benzazepin-2-one]
[2]
  IC50: 12.5 nM

## CC[C@H](C)[C@H](S)C(=O)N[C@H]1CCc2ccccc2N(CC(=O)O)C1=O [Example A-11, (S)-3-[(2S,3S)-2-Mercapto-3-methylvarelylamino]-1-carboxymethyl-2,3,4,5-tetrahydro-1H-[1]benzazepin-2-one]
[2]
  IC50: 6.2 nM
[4]; 0.01 mg/kg i.v.
  increase (% rate of change) in urinary accumulation within 20 minutes: 220%
[4]; 0.03 mg/kg i.v.
  increase (% rate of change) in urinary accumulation within 20 minutes: 390%
[4]; 0.1 mg/kg i.v.
  increase (% rate of change) in urinary accumulation within 20 minutes: 460%

## CC[C@H](C)[C@H](S)C(=O)N[C@H]1CCC[C@H]2SC[C@@H](C(=O)O)N2C1=O [Example C-8, [3R-[3α,6α,(S*),9aβ]]-6-[[(2S,3S)-3-methyl-1-oxo-2-thiopentyl]amino]-octahydro-5-oxothiazol[3,2-a]-azepine-3-carboxylic acid]
[1]
  IC50: 9.2 nM
[2]
  IC50: 13.4 nM
[4]; 0.01 mg/kg i.v.
  increase (% rate of change) in urinary accumulation within 20 minutes: 200%
[4]; 0.03 mg/kg i.v.
  increase (% rate of change) in urinary accumulation within 20 minutes: 280%
[4]; 0.1 mg/kg i.v.
  increase (% rate of change) in urinary accumulation within 20 minutes: 340%

## CC[C@H](C)[C@H](S)C(=O)N[C@H]1Cc2ccc(-c3ccccc3)cc2[C@H]2CCC[C@@H](C(=O)O)N2C1=O [Example C-14, [4S-[4α,7α(R*),12bβ]]-7-[[(2S,3S)-3-Methyl-1-oxo-2-thiopentyl]amino]-6-oxo-11-phenyl-1,2,3,4,6,7,8,12b-octahydropyrido[2,1-a][2]benzazepine-4-carboxylic acid]
[2]
  IC50: 17.8 nM
[3]
  IC50: 14 nM
[4]; 0.03 mg/kg i.v.
  increase (% rate of change) in urinary accumulation within 20 minutes: 240%
[4]; 0.1 mg/kg i.v.
  increase (% rate of change) in urinary accumulation within 20 minutes: 420%
[4]; 0.3 mg/kg i.v.
  increase (% rate of change) in urinary accumulation within 20 minutes: 470%

## CC(C)[C@H](S)C(=O)N[C@H]1Cc2ccc(-c3ccccc3)cc2[C@H]2CCC[C@@H](C(=O)O)N2C1=O [Example E-10, [4S-[4α,7α(R*),12bβ]]-7-[(S)-2-Mercapto-3-methylbutyrylamino]-6-oxo-11-phenyl-1,2,3,4,6,7,8,12b-octahydropyrido[2,1-a][2]benzazepine-4-carboxylic acid]
[3]
  IC50: 8.2 nM

## O=C(N[C@H]1CCC[C@H]2SC[C@@H](C(=O)O)N2C1=O)[C@@H](S)Cc1ccccc1 [Example F-17, [3R-[3α,6α(S*),9aβ]]-6-[[(S)-1-Oxo-2-thio-3-phenylpropyl]amino]-octahydro-5-oxothiazol[3,2-a]-azepine-3-carboxylic acid]
[1]
  IC50: 11.1 nM
